In ChEMBL document CHEMBL6096658, “Discovery of Potent, Highly Selective, and Efficacious SMARCA2 Degraders” (J Med Chem, 2025):
Active and inactive are the calls of the source. The calls are words filed in the database; no cut-off is given here.

How the values were obtained:
[1] = biological target: T1, von Hippel-Lindau disease tumor suppressor/SWI/SNF-related matrix-associated actin-dependent regulator of chromatin subfamily A member 2 (Homo sapiens, UniProt P51531+P40337); assay: In vivo PROTAC activity at VHL/ SMARCA2 in female BALB/c mouse xenografted with human HT-1080 cells assessed as reduction in SMARCA2 level in tumor at 10 mg/kg, iv measured after 24 hrs relative to control; assay type: functional, organism-based; parameters: scale not given: the % may be the effect or the level left
Target sequence in this assay (P40337 whole entry, looked up): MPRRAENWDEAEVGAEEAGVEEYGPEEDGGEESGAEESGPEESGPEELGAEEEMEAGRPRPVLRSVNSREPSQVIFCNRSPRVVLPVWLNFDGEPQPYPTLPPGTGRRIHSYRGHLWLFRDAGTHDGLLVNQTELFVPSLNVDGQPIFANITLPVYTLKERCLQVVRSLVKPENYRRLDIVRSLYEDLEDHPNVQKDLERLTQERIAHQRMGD
Target sequence in this assay (P51531 whole entry, looked up): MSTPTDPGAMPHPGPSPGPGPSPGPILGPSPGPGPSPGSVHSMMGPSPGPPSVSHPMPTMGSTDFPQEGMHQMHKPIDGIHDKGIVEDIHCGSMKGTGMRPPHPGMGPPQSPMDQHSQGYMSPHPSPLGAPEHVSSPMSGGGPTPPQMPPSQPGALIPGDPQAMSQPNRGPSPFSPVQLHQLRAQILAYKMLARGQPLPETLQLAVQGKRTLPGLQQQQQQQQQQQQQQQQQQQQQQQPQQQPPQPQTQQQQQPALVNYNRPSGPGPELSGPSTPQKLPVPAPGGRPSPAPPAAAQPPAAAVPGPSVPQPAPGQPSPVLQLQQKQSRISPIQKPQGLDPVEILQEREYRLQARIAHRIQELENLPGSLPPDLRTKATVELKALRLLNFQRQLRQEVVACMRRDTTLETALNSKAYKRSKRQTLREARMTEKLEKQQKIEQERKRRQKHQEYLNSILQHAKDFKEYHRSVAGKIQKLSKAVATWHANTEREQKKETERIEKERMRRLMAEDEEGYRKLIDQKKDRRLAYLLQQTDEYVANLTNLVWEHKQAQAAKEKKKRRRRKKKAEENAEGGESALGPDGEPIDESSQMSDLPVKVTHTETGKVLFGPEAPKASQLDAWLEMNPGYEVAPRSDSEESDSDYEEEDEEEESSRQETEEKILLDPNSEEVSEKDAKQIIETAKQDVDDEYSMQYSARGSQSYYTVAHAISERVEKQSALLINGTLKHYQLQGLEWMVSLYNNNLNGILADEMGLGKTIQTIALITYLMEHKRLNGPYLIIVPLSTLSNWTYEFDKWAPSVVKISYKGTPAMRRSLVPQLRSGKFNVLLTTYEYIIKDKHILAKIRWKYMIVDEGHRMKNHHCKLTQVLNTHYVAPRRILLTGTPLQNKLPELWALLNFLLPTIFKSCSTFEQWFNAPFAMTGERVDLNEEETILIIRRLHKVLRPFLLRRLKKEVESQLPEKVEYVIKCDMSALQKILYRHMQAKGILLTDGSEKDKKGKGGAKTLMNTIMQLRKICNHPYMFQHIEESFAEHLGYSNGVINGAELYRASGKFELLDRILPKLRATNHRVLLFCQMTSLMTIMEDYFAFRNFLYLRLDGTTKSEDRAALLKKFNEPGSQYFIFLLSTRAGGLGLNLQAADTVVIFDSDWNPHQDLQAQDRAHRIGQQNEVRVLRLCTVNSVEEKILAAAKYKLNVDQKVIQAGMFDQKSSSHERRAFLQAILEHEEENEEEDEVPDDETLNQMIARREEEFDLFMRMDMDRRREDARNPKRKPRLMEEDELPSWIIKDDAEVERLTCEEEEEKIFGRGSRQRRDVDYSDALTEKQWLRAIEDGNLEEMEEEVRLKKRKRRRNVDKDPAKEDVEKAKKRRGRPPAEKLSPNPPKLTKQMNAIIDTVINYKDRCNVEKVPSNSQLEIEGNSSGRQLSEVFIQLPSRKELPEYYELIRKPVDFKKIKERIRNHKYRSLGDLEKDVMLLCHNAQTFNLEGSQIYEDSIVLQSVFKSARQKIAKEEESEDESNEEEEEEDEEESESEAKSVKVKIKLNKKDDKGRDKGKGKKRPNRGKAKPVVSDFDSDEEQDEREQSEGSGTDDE

[2] = biological target: von Hippel-Lindau disease tumor suppressor (Homo sapiens, UniProt P40337); assay: Binding affinity to VHL (unknown origin) incubated for 30 mins by HTRF assay
Sequence of von Hippel-Lindau disease tumor suppressor (P40337 whole entry): as the sequence (P40337 whole entry, looked up) above

Calu-6 [3] = assay: Antiproliferative activity against human Calu-6 cells assessed as cell growth inhibition incubated for 6 days by Cell Titer Glo assay; assay type: functional; conditions: Calu-6, 144 h, time 6 day
HT-1080 [4] = assay: Antiproliferative activity against human HT-1080 cells assessed as inhibition of cell proliferation incubated for 6 days by Cell Titer Glo assay; assay type: functional, cell-based; conditions: time 6.0 day
[5] = biological target: T2, von Hippel-Lindau disease tumor suppressor/SWI/SNF-related matrix-associated actin-dependent regulator of chromatin subfamily A member 4 (Homo sapiens, UniProt P51532+P40337); assay: PROTAC activity at VHL/SMARCA4 in human HT-1080 cells assessed as induction of SMARCA4 degradation by measuring maximum efficacy incubated for 6 hrs by Nano-Glo HiBiT Lytic Detection Assay relative to control; assay type: cell-based
Target sequence in this assay (P40337 whole entry, looked up): as above
Target sequence in this assay (P51532 whole entry, looked up): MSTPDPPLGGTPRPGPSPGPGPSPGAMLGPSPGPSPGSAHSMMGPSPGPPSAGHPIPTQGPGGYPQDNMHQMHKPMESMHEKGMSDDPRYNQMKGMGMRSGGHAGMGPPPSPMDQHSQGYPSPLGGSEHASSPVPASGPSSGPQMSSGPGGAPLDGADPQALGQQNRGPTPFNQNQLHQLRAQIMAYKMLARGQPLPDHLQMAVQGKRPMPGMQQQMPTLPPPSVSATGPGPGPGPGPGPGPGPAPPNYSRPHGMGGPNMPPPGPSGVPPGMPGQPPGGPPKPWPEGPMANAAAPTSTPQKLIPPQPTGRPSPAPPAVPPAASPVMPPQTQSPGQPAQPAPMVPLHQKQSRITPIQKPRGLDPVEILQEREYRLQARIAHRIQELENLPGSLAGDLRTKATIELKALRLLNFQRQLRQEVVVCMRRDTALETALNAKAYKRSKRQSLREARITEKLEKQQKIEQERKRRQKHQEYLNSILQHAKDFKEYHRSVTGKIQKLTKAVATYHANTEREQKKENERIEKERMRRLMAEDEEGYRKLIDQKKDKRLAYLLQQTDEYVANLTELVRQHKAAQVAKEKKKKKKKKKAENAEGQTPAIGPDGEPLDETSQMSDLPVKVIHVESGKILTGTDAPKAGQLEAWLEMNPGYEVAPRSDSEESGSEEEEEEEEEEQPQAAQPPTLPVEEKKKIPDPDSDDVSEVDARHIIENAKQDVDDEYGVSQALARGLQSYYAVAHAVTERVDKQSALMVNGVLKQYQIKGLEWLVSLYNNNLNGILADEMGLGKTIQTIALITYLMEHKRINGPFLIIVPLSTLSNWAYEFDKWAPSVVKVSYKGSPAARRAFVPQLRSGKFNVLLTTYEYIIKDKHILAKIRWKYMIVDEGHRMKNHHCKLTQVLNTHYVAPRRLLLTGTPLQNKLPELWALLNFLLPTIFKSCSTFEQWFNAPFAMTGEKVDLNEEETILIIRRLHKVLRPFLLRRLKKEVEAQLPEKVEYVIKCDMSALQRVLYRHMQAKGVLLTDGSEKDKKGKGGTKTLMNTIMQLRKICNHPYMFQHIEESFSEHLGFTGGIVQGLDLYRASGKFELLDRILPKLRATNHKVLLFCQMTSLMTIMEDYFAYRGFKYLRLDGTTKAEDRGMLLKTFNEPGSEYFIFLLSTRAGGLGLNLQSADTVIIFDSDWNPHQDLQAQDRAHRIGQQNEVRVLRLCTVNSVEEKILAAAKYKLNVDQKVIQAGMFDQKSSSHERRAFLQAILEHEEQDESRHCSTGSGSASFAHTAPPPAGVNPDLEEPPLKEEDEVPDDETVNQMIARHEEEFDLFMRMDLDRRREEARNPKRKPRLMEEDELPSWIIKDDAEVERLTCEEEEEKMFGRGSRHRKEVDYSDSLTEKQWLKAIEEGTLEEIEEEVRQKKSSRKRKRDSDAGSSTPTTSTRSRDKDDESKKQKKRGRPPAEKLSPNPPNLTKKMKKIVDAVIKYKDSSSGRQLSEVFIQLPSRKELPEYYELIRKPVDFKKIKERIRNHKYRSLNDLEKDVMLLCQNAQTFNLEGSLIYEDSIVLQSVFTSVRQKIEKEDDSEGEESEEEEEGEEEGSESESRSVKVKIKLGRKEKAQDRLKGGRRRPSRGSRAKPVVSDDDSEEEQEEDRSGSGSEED

[6] = biological target: T1, von Hippel-Lindau disease tumor suppressor/SWI/SNF-related matrix-associated actin-dependent regulator of chromatin subfamily A member 2; assay: PROTAC activity at VHL/SMARCA2 in human HT-1080 cells assessed as induction of SMARCA2 degradation incubated for 24 hrs by Nano-Glo HiBiT Lytic Detection Assay; assay type: cell-based
NCI-H1373 [7] = assay: Antiproliferative activity against human NCI-H1373 cells assessed as inhibition of cell proliferation incubated for 6 days by Cell Titer Glo assay; assay type: functional, cell-based; conditions: time 6.0 day
Calu-6 [8] = assay: Antiproliferative activity against human Calu-6 cells assessed as inhibition of cell proliferation incubated for 6 days by Cell Titer Glo assay; assay type: functional, cell-based; conditions: time 6.0 day
NCI-H1568 = assay: Antiproliferative activity against human NCI-H1568 cells assessed as inhibition of cell proliferation incubated for 6 days by Cell Titer Glo assay; assay type: functional, cell-based; conditions: time 6.0 day
[9] = biological target: T2, von Hippel-Lindau disease tumor suppressor/SWI/SNF-related matrix-associated actin-dependent regulator of chromatin subfamily A member 4; assay: In vivo PROTAC activity at VHL/ SMARCA4 in female BALB/c mouse xenografted with human HT-1080 cells at 10 mg/kg, iv measured after 24 hrs relative to control; assay type: functional, organism-based
Target sequence in this assay (P40337 whole entry, looked up): as the sequence (P40337 whole entry, looked up) above
Target sequence in this assay (P51532 whole entry, looked up): as the sequence (P51532 whole entry, looked up) above

[10] = Metabolic stability in female BALB/c mouse microsomes assessed as half life administered intravenously; assay type: ADME; conditions: route iv
[11] = biological target: T2, von Hippel-Lindau disease tumor suppressor/SWI/SNF-related matrix-associated actin-dependent regulator of chromatin subfamily A member 4; assay: In vivo PROTAC activity at VHL/ SMARCA4 in female BALB/c mouse xenografted with human HT-1080 cells at 1 mg/kg, iv measured after 24 hrs relative to control; assay type: functional, organism-based
Target sequence in this assay (P40337 whole entry, looked up): as the sequence (P40337 whole entry, looked up) above
Target sequence in this assay (P51532 whole entry, looked up): as the sequence (P51532 whole entry, looked up) above

[12] = biological target: T2, von Hippel-Lindau disease tumor suppressor/SWI/SNF-related matrix-associated actin-dependent regulator of chromatin subfamily A member 4; assay: PROTAC activity at VHL/SMARCA4 in human HT-1080 cells assessed as induction of SMARCA4 degradation incubated for 24 hrs by Nano-Glo HiBiT Lytic Detection Assay; assay type: cell-based
[13] = biological target: T1, von Hippel-Lindau disease tumor suppressor/SWI/SNF-related matrix-associated actin-dependent regulator of chromatin subfamily A member 2; assay: PROTAC activity at VHL/SMARCA2 in human HT-1080 cells assessed as induction of SMARCA2 degradation by measuring maximum efficacy incubated for 6 hrs by Nano-Glo HiBiT Lytic Detection Assay relative to control; assay type: cell-based
Target sequence in this assay (P40337 whole entry, looked up): as the sequence (P40337 whole entry, looked up) above
Target sequence in this assay (P51531 whole entry, looked up): as the sequence (P51531 whole entry, looked up) above

NCI-H838 [14] = assay: Antiproliferative activity against human NCI-H838 cells assessed as cell growth inhibition incubated for 6 days by Cell Titer Glo assay; assay type: functional; conditions: NCI-H838, 144 h, time 6 day
NCI-H1573 = assay: Antiproliferative activity against human NCI-H1573 cells assessed as inhibition of cell proliferation incubated for 6 days by Cell Titer Glo assay; assay type: functional, cell-based; conditions: time 6.0 day
[15] = Selectivity ratio of DC50 for PROTAC activity at VHL/SMARCA4 in human HT-1080 cells (unknown origin) to DC50 for VHL/SMARCA2 in human HT-1080 cells (unknown origin); assay type: cell-based
NCI-H838 [16] = assay: Antiproliferative activity against human NCI-H838 cells assessed as inhibition of cell proliferation incubated for 6 days by Cell Titer Glo assay; assay type: functional, cell-based; conditions: time 6.0 day
[17] = biological target: T1, von Hippel-Lindau disease tumor suppressor/SWI/SNF-related matrix-associated actin-dependent regulator of chromatin subfamily A member 2; assay: In vivo PROTAC activity at VHL/ SMARCA2 in female BALB/c mouse xenografted with human HT-1080 cells assessed as reduction in SMARCA2 level in tumor at 1 mg/kg, iv measured after 24 hrs relative to control; assay type: functional, organism-based; parameters: scale not given: the % may be the effect or the level left
Target sequence in this assay (P40337 whole entry, looked up): as the sequence (P40337 whole entry, looked up) above
Target sequence in this assay (P51531 whole entry, looked up): as the sequence (P51531 whole entry, looked up) above

HT-1080 [18] = assay: Antiproliferative activity against wild type human HT-1080 cells assessed as inhibition of cell proliferation incubated for 6 days by Cell Titer Glo assay; assay type: functional, cell-based; conditions: time 6.0 day
Calu-6 [19] = assay: Antiproliferative activity against wild type human Calu-6 cells assessed as inhibition of cell proliferation incubated for 6 days by Cell Titer Glo assay; assay type: functional, cell-based; conditions: time 6.0 day
[20] = biological target: T2, von Hippel-Lindau disease tumor suppressor/SWI/SNF-related matrix-associated actin-dependent regulator of chromatin subfamily A member 4; assay: PROTAC activity at VHL/SMARCA4 in human HT-1080 cells assessed as induction of SMARCA4 degradation pretreated with MG132 followed by compound addition and measured after 6 hrs by Nano-Glo HiBiT Lytic Detection Assay; assay type: cell-based
Target sequence in this assay (P40337 whole entry, looked up): as the sequence (P40337 whole entry, looked up) above
Target sequence in this assay (P51532 whole entry, looked up): as the sequence (P51532 whole entry, looked up) above

[21] = biological target: T1, von Hippel-Lindau disease tumor suppressor/SWI/SNF-related matrix-associated actin-dependent regulator of chromatin subfamily A member 2; assay: PROTAC activity at VHL/SMARCA2 in human HT-1080 cells assessed as induction of SMARCA2 degradation pretreated with MG132 followed by compound addition and measured after 6 hrs by Nano-Glo HiBiT Lytic Detection Assay; assay type: cell-based
Target sequence in this assay (P40337 whole entry, looked up): as the sequence (P40337 whole entry, looked up) above
Target sequence in this assay (P51531 whole entry, looked up): as the sequence (P51531 whole entry, looked up) above

[22] = biological target: T2, von Hippel-Lindau disease tumor suppressor/SWI/SNF-related matrix-associated actin-dependent regulator of chromatin subfamily A member 4; assay: In vivo PROTAC activity at VHL/ SMARCA4 in female BALB/c mouse xenografted with human HT-1080 cells assessed as increase in SMARCA4 level administered intravenously and measured after 24 hrs; assay type: functional, organism-based; conditions: route iv
Target sequence in this assay (P40337 whole entry, looked up): as the sequence (P40337 whole entry, looked up) above
Target sequence in this assay (P51532 whole entry, looked up): as the sequence (P51532 whole entry, looked up) above

NCI-H1373 [23] = assay: Antiproliferative activity against wild type human NCI-H1373 cells assessed as inhibition of cell proliferation incubated for 6 days by Cell Titer Glo assay; assay type: functional, cell-based; conditions: time 6.0 day
[24] = biological target: T1, von Hippel-Lindau disease tumor suppressor/SWI/SNF-related matrix-associated actin-dependent regulator of chromatin subfamily A member 2; assay: PROTAC activity at VHL/SMARCA2 in human HT-1080 cells assessed as induction of SMARCA2 degradation pretreated with MLN4924 followed by compound addition and measured after 6 hrs by Nano-Glo HiBiT Lytic Detection Assay; assay type: cell-based
Target sequence in this assay (P40337 whole entry, looked up): as the sequence (P40337 whole entry, looked up) above
Target sequence in this assay (P51531 whole entry, looked up): as the sequence (P51531 whole entry, looked up) above

[25] = biological target: T1, von Hippel-Lindau disease tumor suppressor/SWI/SNF-related matrix-associated actin-dependent regulator of chromatin subfamily A member 2; assay: PROTAC activity at VHL/SMARCA2 in human HT-1080 cells assessed as induction of SMARCA2 degradation measured after 6 hrs by Nano-Glo HiBiT Lytic Detection Assay; assay type: cell-based; conditions: dose 0.02-1000 nM
Target sequence in this assay (P40337 whole entry, looked up): as the sequence (P40337 whole entry, looked up) above
Target sequence in this assay (P51531 whole entry, looked up): as the sequence (P51531 whole entry, looked up) above

[26] = biological target: T2, von Hippel-Lindau disease tumor suppressor/SWI/SNF-related matrix-associated actin-dependent regulator of chromatin subfamily A member 4; assay: PROTAC activity at VHL/SMARCA4 in human HT-1080 cells assessed as induction of SMARCA4 degradation pretreated with MLN4924 followed by compound addition and measured after 6 hrs by Nano-Glo HiBiT Lytic Detection Assay; assay type: cell-based
Target sequence in this assay (P40337 whole entry, looked up): as the sequence (P40337 whole entry, looked up) above
Target sequence in this assay (P51532 whole entry, looked up): as the sequence (P51532 whole entry, looked up) above

[27] = biological target: T1, von Hippel-Lindau disease tumor suppressor/SWI/SNF-related matrix-associated actin-dependent regulator of chromatin subfamily A member 2; assay: PROTAC activity at VHL/SMARCA2 in human HT-1080 cells assessed as induction of SMARCA2 degradation at 0.02 to 1000 nM by Nano-Glo HiBiT Lytic Detection Assay; assay type: cell-based; conditions: dose 0.02-1000 nM, time 6-24 hrs
[28] = Metabolic stability in female BALB/c mouse microsomes assessed as hepatic extraction ratio administered intravenously; assay type: ADME; conditions: route iv, read-out: ERH
[29] = biological target: SWI/SNF-related matrix-associated actin-dependent regulator of chromatin subfamily A member 4 (Homo sapiens, UniProt P51532); assay: Binding affinity to SMARCA4 (unknown origin) incubated for 30 mins by HTRF assay
[30] = biological target: T1, von Hippel-Lindau disease tumor suppressor/SWI/SNF-related matrix-associated actin-dependent regulator of chromatin subfamily A member 2; assay: Binding affinity to flag-tagged SMARCA2/VHL (unknown origin) assessed as ternary complex formation by measuring HTRF signal incubated for 120 mins by Envision reader analysis; assay type: protein assay
Calu-6 [31] = assay: Antiproliferative activity against human Calu-6 cells assessed as inhibition of cell growth at 1 uM incubated for 6 days by Cell Titer Glo assay; assay type: functional; conditions: Calu-6, 144 h, time 6 day
[32] = biological target: SWI/SNF-related matrix-associated actin-dependent regulator of chromatin subfamily A member 2 (Homo sapiens, UniProt P51531); assay: Binding affinity to SMARCA2 (unknown origin) incubated for 30 mins by HTRF assay

SMILES	Activity [1]	IC50 [2]	GI50 (Calu-6 [3])	Emax [5]	DC50 [6]	Activity (NCI-H1568)	half-life [10]	DC50 [12]	Emax [13]	GI50 (NCI-H838 [14])	Activity (NCI-H1573)	Ratio [15]	Activity (NCI-H838 [16])	Activity [17]	also measured
Cc1ncsc1-c1ccc([C@H](C)NC(=O)[C@@H]2C[C@@H](O)CN2C(=O)[C@H](C(C)C)n2cc([C@H]3CC[C@H](CN4CCC(c5ccc6c(c5)C(C)(C)c5nc(=O)c7c(Cl)cccc7n5-6)CC4)CC3)nn2)cc1	> 95%	2.1 nM	280 nM	97%	0.22 nM	Active	5 h	0.85 nM	98%	3 nM	Active	4	Active	94%	Activity (HT-1080 [4]): Active; Activity (NCI-H1373 [7]): Active; Activity (Calu-6 [8]): Active; Activity [9]: 93%; Activity [11]: 54%
Cc1ncsc1-c1ccc([C@H](C)NC(=O)[C@@H]2C[C@@H](O)CN2C(=O)[C@@H](n2cc([C@H]3CC[C@H](CN4CCC(c5ccc6c(c5)-n5c(nc(=O)c7c(Cl)cccc75)C6(C)C)CC4)CC3)nn2)C(C)(C)C)cc1	> 95%	25 nM	> 1000 nM	68%	1.3 nM	Active	10 h	94 nM	97%	34 nM	Active	72	Active	83%	Activity (HT-1080 [18]): Active; Less Activity Observed; Activity (Calu-6 [19]): Active; Less Activity Observed; Activity [20]: inactive; Activity [21]: inactive; Activity [22]: Active; Activity (NCI-H1373 [23]): Active; Less Activity Observed; Activity [24]: inactive; Activity [25]: Dose-dependent-effect; Activity [26]: inactive; Activity [27]: Time-dependent-effect
Cc1ncsc1-c1ccc([C@H](C)NC(=O)[C@@H]2C[C@@H](O)CN2C(=O)[C@@H](n2cc([C@H]3CC[C@H](CN4CCC(c5ccc6c(c5)C(C)(C)c5nc(=O)c7c(Cl)cccc7n5-6)CC4)CC3)nn2)C(C)(C)C)cc1		1.5 nM	> 1000 nM	78%	0.28 nM		1.5 h	12 nM	97%	32 nM		43			hepatic extraction ratio [28]: 0.44
Cc1ncsc1-c1ccc([C@H](C)NC(=O)[C@@H]2C[C@@H](O)CN2C(=O)[C@@H](c2cc(N3CCC(CN4CCC(c5ccc6c(c5)-n5c(nc(=O)c7c(Cl)cccc75)C6(C)C)CC4)CC3)no2)C(C)C)cc1		8.6 nM	> 1000 nM	69%	1.7 nM			63 nM	97%	27 nM		37			IC50 [29]: 63 nM; Activity [30]: Active; Smarca2-Vhl Shows 60% Greater Auc Compared To Smarca4-Vhl Was Observed; inhibition at 1 µM (Calu-6 [31]): < 15%; IC50 [32]: 30 nM
